Laboratory results: ChEMBL document CHEMBL1145407, “Structure-activity relationships of alpha-ketooxazole inhibitors of fatty acid amide hydrolase” (J Med Chem, 2007)

Assays:
[1] = target: T1, Fatty-acid amide hydrolase 1 (Rattus norvegicus, UniProt P97612); assay: Inhibition of rat recombinant FAAH expressed in Escherichia coli
T1 sequence (P97612 whole entry): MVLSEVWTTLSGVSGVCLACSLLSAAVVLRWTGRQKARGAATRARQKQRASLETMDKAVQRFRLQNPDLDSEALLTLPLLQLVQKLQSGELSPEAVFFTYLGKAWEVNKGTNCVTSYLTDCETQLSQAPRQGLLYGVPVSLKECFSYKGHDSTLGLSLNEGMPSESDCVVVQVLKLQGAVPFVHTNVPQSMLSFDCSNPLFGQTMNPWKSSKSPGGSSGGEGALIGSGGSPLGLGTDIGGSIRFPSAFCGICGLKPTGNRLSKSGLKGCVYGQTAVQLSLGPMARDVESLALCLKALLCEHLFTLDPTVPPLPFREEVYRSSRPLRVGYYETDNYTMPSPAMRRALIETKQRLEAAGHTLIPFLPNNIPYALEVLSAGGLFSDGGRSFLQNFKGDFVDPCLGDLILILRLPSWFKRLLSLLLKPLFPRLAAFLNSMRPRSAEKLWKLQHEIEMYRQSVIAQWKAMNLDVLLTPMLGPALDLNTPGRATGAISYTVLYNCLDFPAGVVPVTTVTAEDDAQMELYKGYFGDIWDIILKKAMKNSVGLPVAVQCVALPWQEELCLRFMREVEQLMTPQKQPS

[2] = Selectivity for rat recombinant FAAH over TGH
[3] = Selectivity for rat recombinant FAAH over KIAA1363

Row | SMILES | Ki [1] [nM] | Ratio IC50 [2] | Ratio IC50 [3] | Selectivity ratio [3]
1 | O=C(O)c1ccc(CCCCCCC(=O)c2ncc(-c3ccccn3)o2)cc1 | > 600 | – | – | –
2 | COc1ccccc1CCCCCCC(=O)c1ncc(-c2ccccn2)o1 | 5.8 | 500 | > 10000 | –
3 | O=C(CCCCCCc1ccc([N+](=O)[O-])cc1)c1ncc(-c2ccccn2)o1 | 6.5 | 100000 | > 200000 | –
4 | O=C(CCCCCCc1ccc(C(F)(F)F)cc1)c1ncc(-c2ccccn2)o1 | 4 | 20 | > 10000 | –
5 | O=C(CCCCC#Cc1ccc(F)cc1)c1ncc(-c2ccccn2)o1 | 36 | – | – | –
6 | O=C(CCCCCCc1ccccn1)c1ncc(-c2ccccn2)o1 | 120 | 33 | > 3300 | –
7 | O=C(CCCCCCc1ccc(Cl)cc1)c1ncc(-c2ccccn2)o1 | 2.7 | 67 | > 3300 | –
8 | CS(=O)(=O)c1cccc(CCCCCCC(=O)c2ncc(-c3ccccn3)o2)c1 | 1.3 | 1000 | > 25000 | –
9 | Nc1cccc(CCCCCCC(=O)c2ncc(-c3ccccn3)o2)c1 | 30 | – | – | –
10 | O=C(CCc1cccc(OCc2ccccc2)c1)c1ncc(-c2ccccn2)o1 | – | 20 | > 1000 | –
11 | CS(=O)(=O)c1ccccc1CCCCCCC(=O)c1ncc(-c2ccccn2)o1 | 37 | 30 | > 1000 | –
12 | O=C(CCCCCCc1cccs1)c1ncc(-c2ccccn2)o1 | 4.3 | 35 | > 5000 | –
13 | Cc1cccc(CCCCCCC(=O)c2ncc(-c3ccccn3)o2)c1 | 3.3 | 170 | > 3300 | –
14 | O=C(O)c1cccc(CCCCCCC(=O)c2ncc(-c3ccccn3)o2)c1 | > 600 | – | – | –
15 | COC(=O)CCCCC(=O)c1ncc(-c2ccccn2)o1 | 1800 | – | – | –
16 | CN(CCCc1ccccc1)CCC(=O)c1ncc(-c2ccccn2)o1 | 200 | – | – | –
17 | CSc1cccc(CCCCCCC(=O)c2ncc(-c3ccccn3)o2)c1 | 4.2 | 30 | > 10000 | –
18 | O=C(CCc1ccc(Nc2ccccc2)cc1)c1ncc(-c2ccccn2)o1 | – | 120 | > 20000 | –
19 | O=C(COCCCCc1ccccc1)c1ncc(-c2ccccn2)o1 | 60 | 34 | > 58 | –
20 | O=C(CCCOCCc1ccccc1)c1ncc(-c2ccccn2)o1 | 63 | – | – | –
21 | CS(=O)(=O)c1ccc(CCCCCCC(=O)c2ncc(-c3ccccn3)o2)cc1 | 19 | 40 | > 2000 | –
22 | O=C(CCCCC#Cc1cccc(Cl)c1Cl)c1ncc(-c2ccccn2)o1 | 5 | – | – | –
23 | O=C(CCCCC#Cc1ccc(C(F)(F)F)cc1)c1ncc(-c2ccccn2)o1 | 75 | – | – | –

Row | SMILES | Ki [1] [nM] | Ratio IC50 [2] | Ratio IC50 [3] | Selectivity ratio [3]
24 | O=C(CCc1ccc(OCc2ccccc2)cc1)c1ncc(-c2ccccn2)o1 | – | 8000 | > 100000 | –
25 | O=C(CCCCSCc1ccccc1)c1ncc(-c2ccccn2)o1 | 25 | – | – | –
26 | O=C(CCCCC#Cc1ccccc1[N+](=O)[O-])c1ncc(-c2ccccn2)o1 | 17 | – | – | –
27 | O=C(CCCCC[S+]([O-])c1ccccc1)c1ncc(-c2ccccn2)o1 (stereo unspecified) | 1000 | – | – | –
28 | O=C(CCCCC(=O)c1ncc(-c2ccccn2)o1)Nc1ccccc1 | 3100 | – | – | –
29 | O=C(CCCCC(O)Cc1ccccc1)c1ncc(-c2ccccn2)o1 (stereo unspecified) | 200 | – | – | –
30 | COC(=O)CCC(=O)c1ncc(-c2ccccn2)o1 | > 100000 | – | – | –
31 | O=C(CCC(O)CCCc1ccccc1)c1ncc(-c2ccccn2)o1 (stereo unspecified) | 500 | – | – | –
32 | COc1ccc(CCCCCCC(=O)c2ncc(-c3ccccn3)o2)cc1 | 6.2 | 250 | – | > 5000
33 | O=C(CCCCCCc1cccc(Cl)c1)c1ncc(-c2ccccn2)o1 | – | 250 | > 50000 | –
34 | O=C(CCc1ccc(OCc2ccccc2)cc1)c1nc2ncccc2o1 | – | 130 | 7000 | –
35 | O=C(CCCCCCc1ccccc1C(F)(F)F)c1ncc(-c2ccccn2)o1 | 4 | 230 | > 3300 | –
36 | O=C(CCCCCCc1cccc(F)c1)c1ncc(-c2ccccn2)o1 | 2.2 | 100 | > 10000 | –
37 | O=C(CCCCC#Cc1ccccc1C(F)(F)F)c1ncc(-c2ccccn2)o1 | 16 | – | – | –
38 | CC(C)(C)OC(=O)Nc1ccc(CCCCCCC(=O)c2ncc(-c3ccccn3)o2)cc1 | 5.6 | – | – | –
39 | O=C(CCCCC#Cc1ccncc1)c1ncc(-c2ccccn2)o1 | 150 | – | – | –
40 | CN(CCCCCC(=O)c1ncc(-c2ccccn2)o1)c1ccccc1 | 40 | – | – | –
41 | O=C(CCCCC#Cc1ccccc1Cl)c1ncc(-c2ccccn2)o1 | 13 | – | – | –
42 | O=C(CCCCOCc1ccccc1)c1ncc(-c2ccccn2)o1 | 55 | – | – | –
43 | O=C(CCCCc1ccccc1)CC(=O)c1ncc(-c2ccccn2)o1 | > 2000 | – | – | –
44 | CSc1ccc(CCCCCCC(=O)c2ncc(-c3ccccn3)o2)cc1 | 2.5 | 40 | > 5000 | –
45 | O=C(CCCCCCc1cccc2ccccc12)c1ncc(-c2ccccn2)o1 | – | 30 | > 10000 | –
46 | O=C(CCCCC#Cc1cccc([N+](=O)[O-])c1)c1ncc(-c2ccccn2)o1 | 4.8 | – | – | –

Row | SMILES | Ki [1] [nM] | Ratio IC50 [2] | Ratio IC50 [3] | Selectivity ratio [3]
47 | CN(CCCCc1ccccc1)CC(O)c1ncc(-c2ccccn2)o1 (stereo unspecified) | > 100000 | – | – | –
48 | CC(C)(C)OC(=O)Nc1cccc(C#CCCCCC(=O)c2ncc(-c3ccccn3)o2)c1 | 12 | – | – | –
49 | COc1cccc(CCCCCCC(=O)c2ncc(-c3ccccn3)o2)c1 | 2.5 | 50 | > 5000 | –
50 | COC(=O)c1ccc(CCCCCCC(=O)c2ncc(-c3ccccn3)o2)cc1 | 1.5 | 25000 | > 400000 | –
51 | CN(CCCC(=O)c1ncc(-c2ccccn2)o1)CCc1ccccc1 | 3500 | – | – | –
52 | O=C(CCCCCCc1ccc2ccccc2c1)c1ncc(-c2ccccn2)o1 | 11 | 0.5 | > 2500 | –
53 | COC(=O)c1cccc(CCCCCCC(=O)c2ncc(-c3ccccn3)o2)c1 | 1.9 | 25000 | > 250000 | –
54 | O=C(CCCCC#Cc1cccnc1)c1ncc(-c2ccccn2)o1 | 300 | – | – | –
55 | O=C(CCc1ccc(COc2ccccc2)cc1)c1ncc(-c2ccccn2)o1 | – | 1000 | > 50000 | –
56 | O=C(CCOCCCc1ccccc1)c1ncc(-c2ccccn2)o1 | 90 | – | – | –
57 | O=C(C[S+]([O-])CCCCc1ccccc1)c1ncc(-c2ccccn2)o1 (stereo unspecified) | 1000 | – | – | –
58 | O=C(CCCCCCc1ccsc1)c1ncc(-c2ccccn2)o1 | 5.1 | 27 | > 3300 | –
59 | COC(=O)c1ccc(C#CCCCCC(=O)c2ncc(-c3ccccn3)o2)cc1 | 25 | – | – | –
60 | O=C(CCCC(=O)c1ncc(-c2ccccn2)o1)NCc1ccccc1 | 20000 | – | – | –
61 | COC(=O)CCCC(=O)c1ncc(-c2ccccn2)o1 | 7000 | – | – | –
62 | O=C(CCCCC#Cc1ccccn1)c1ncc(-c2ccccn2)o1 | 280 | – | – | –
63 | OC(CCCCCc1ccccc1)C(O)c1ncc(-c2ccccn2)o1 (stereo unspecified) | 2000 | – | – | –
64 | O=C(CCCC(O)CCc1ccccc1)c1ncc(-c2ccccn2)o1 (stereo unspecified) | 1500 | – | – | –
65 | O=C(c1ncc(-c2ccccn2)o1)C1CCCC1 | 2500 | – | – | –
66 | O=C(CCCC[S+]([O-])Cc1ccccc1)c1ncc(-c2ccccn2)o1 (stereo unspecified) | 2500 | – | – | –
67 | O=C(CCCCC#Cc1ccccc1)c1ncc(-c2ccccn2)o1 | 25 | – | – | –
68 | CC(C)(C)OC(=O)Nc1ccc(C#CCCCCC(=O)c2ncc(-c3ccccn3)o2)cc1 | 23 | – | – | –
69 | O=C(CCCCC#Cc1ccccc1F)c1ncc(-c2ccccn2)o1 | 8 | – | – | –

Row | SMILES | Ki [1] [nM] | Ratio IC50 [2] | Ratio IC50 [3] | Selectivity ratio [3]
70 | O=C(CCC(=O)c1ncc(-c2ccccn2)o1)NCCc1ccccc1 | > 100000 | – | – | –
71 | O=C(CCCCCOc1ccccc1)c1ncc(-c2ccccn2)o1 | 14 | – | – | –
72 | O=C(CC(O)CCCCc1ccccc1)c1ncc(-c2ccccn2)o1 (stereo unspecified) | 35 | – | – | –
73 | O=C(CCCCC#Cc1ccc([N+](=O)[O-])cc1)c1ncc(-c2ccccn2)o1 | 31 | – | – | –
74 | CN(CCCCC(=O)c1ncc(-c2ccccn2)o1)Cc1ccccc1 | 200 | – | – | –
75 | O=C(CCCCC#Cc1cccc(Cl)c1)c1ncc(-c2ccccn2)o1 | 7 | – | – | –
76 | O=C(CSCCCCc1ccccc1)c1ncc(-c2ccccn2)o1 | 4 | – | – | –
77 | COC(=O)c1cccc(C#CCCCCC(=O)c2ncc(-c3ccccn3)o2)c1 | 30 | – | – | –
78 | O=C(CCc1ccc(Sc2ccccc2)cc1)c1ncc(-c2ccccn2)o1 | – | 30 | > 50000 | –
79 | O=C(c1ncc(-c2ccccn2)o1)C1CC1 | > 50000 | – | – | –
80 | O=C(CCCCCC(O)c1ccccc1)c1ncc(-c2ccccn2)o1 (stereo unspecified) | 35 | – | – | –
81 | O=C(CCCCCCc1ccccc1C(=O)O)c1ncc(-c2ccccn2)o1 | > 600 | – | – | –
82 | O=C(CCCCC#Cc1ccc(Cl)cc1)c1ncc(-c2ccccn2)o1 | 20 | – | – | –
83 | O=C(CCl)c1ncc(-c2ccccn2)o1 | 800 | – | – | –
84 | CC(C)(C)OC(=O)Nc1cccc(CCCCCCC(=O)c2ncc(-c3ccccn3)o2)c1 | 2.4 | – | – | –
85 | O=C(CS(=O)(=O)CCCCc1ccccc1)c1ncc(-c2ccccn2)o1 | 20000 | – | – | –
86 | O=C(CCCCS(=O)(=O)Cc1ccccc1)c1ncc(-c2ccccn2)o1 | > 10000 | – | – | –
87 | O=C(CCCCCS(=O)(=O)c1ccccc1)c1ncc(-c2ccccn2)o1 | 6000 | – | – | –
88 | O=C(CCCCC#Cc1cccc(C(F)(F)F)c1)c1ncc(-c2ccccn2)o1 | 10 | – | – | –
89 | O=C(CCCCC#Cc1cccc(F)c1)c1ncc(-c2ccccn2)o1 | 3.2 | – | – | –
90 | O=C(CCc1ccc(Cc2ccccc2)cc1)c1ncc(-c2ccccn2)o1 | – | 300 | > 33000 | –
